Tested on: healthy volunteers
Assay: Clinical trial in healthy volunteers: intensity of the psychedelic effects (PPEQ)
Assay type: in vivo, human
Conditions: for PPEQ Intensity (0-100) / PPEQ Loss of Control (0-100) / PPEQ Profoundness (0-100) / PPEQ Total Score (0-100): group average
Description: A clinical trial was performed in which 5-MeO-DMT free base (purity not less than 99%) at different dose levels was administered via inhalation (as described in Example 1) in a single day to healthy volunteers who had prior experiences with the use of synthetic or naturally-occurring psychedelics. The trial was reviewed and approved by the relevant national competent authority and local medical ethics committee. The trial consisted of two parts: Part A, where single doses of 5-MeO-DMT dosage amounts of 2 mg, 6 mg, 12 mg and 18 mg were administered; and Part B, where an initial 5-MeO-DMT dosage amount of 6 mg was administered, and then, unless the participant had already experienced a peak psychedelic experience based on the PPEQ or the supervising physician had decided that further dose increases were inappropriate based on observed side effects, further subsequent dosage amounts of 12 mg and 18 mg were administered with about 3 hours in between each administration. Participants in Part A only received one dose and were not allowed to receive higher doses in later parts of Part A and were not allowed to participate in Part B. Participants were closely monitored for 3.5 hours after the last dose, with additional follow-up visits 1 day and 7 days after dosing. Various safety related measures (e.g., adverse event reporting, safety laboratory analyses, vital signs, ECG, CADSS, PVT, DSST, Prospective Memory Task (PMT)) as well as measures of the intensity of the psychedelic effects (MEQ30, ASC, PPEQ, subjective description of the psychedelic experience) were recorded. Pharmacokinetic analysis of 5-MeO-DMT and bufotenine plasma levels was performed at 1 hour and 3 hours after drug administration in Part A, and at 3 hours after drug administration in Part B.
18 participants were recruited into Part A of the study and 4 participants were recruited into Part B. 9 Participants were female and 13 participants were male. Median age was 29 years (range: 19 to 42 years). In Part A, 4 participants received 2 mg, 6 participants received 6 mg, 4 participants received 12 mg and 4 participants received 18 mg of 5-MeO-DMT. In Part B, 1 participant received 6 mg, 2 participants received 6 mg and then 12 mg and one participant received 6 mg, 12 mg and then 18 mg of 5-MeO-DMT.
The Peak Psychedelic Experience Questionnaire (PPEQ) has been developed by the inventor as an improved alternative to the oceanic boundlessness dimension of the ASC and the MEQ30 to allow a simpler and quicker assessment of the intensity of a psychedelic experience. The PPEQ is comprised of three questions, all to be scored from 0 to 100 by marking a Visual Analogue Scale between 0 and 100 mm: • 1. How intense was the experience? • 2. To what extent did you lose control? • 3. How profound (i.e., deep and significant) was the experience?
The PPEQ Total Score is the average of the scores of the three questions. A “peak psychedelic experience” is identified through achievement of a PPEQ Total Score of at least 75. A statistically significant correlation between the PPEQ Total Score and the oceanic boundlessness dimension of the ASC, respectively the MEQ30 Total Score, has been observed in the data set described in Example 3.

[1] = Part B max. dose (n = 4), highest dose for each participant (6, 12 or 18 mg)

With `COc1ccc2[nH]cc(CCN(C)C)c2c1` [5-MeO-DMT, 5-methoxy-N,N-dimethyltryptamine] the “PPE achieved (fraction of participants who achieved a PPEQ Total Score of at least 75)” value (Part A 2 mg (n = 4)) was 0/4, the “PPEQ Intensity (0-100)” value (Part A 2 mg (n = 4)) was 16 and the “PPEQ Loss of Control (0-100)” value (Part A 2 mg (n = 4)) was 4. The “PPEQ Profoundness (0-100)” value (Part A 2 mg (n = 4)) was 7, the “PPEQ Total Score (0-100)” value (Part A 2 mg (n = 4)) was 9.0 and the “PPE achieved (fraction of participants who achieved a PPEQ Total Score of at least 75)” value (Part A 6 mg (n = 6)) was 1/6. For the same molecule, the “PPEQ Intensity (0-100)” value (Part A 6 mg (n = 6)) was 53, the “PPEQ Loss of Control (0-100)” value (Part A 6 mg (n = 6)) was 37 and the “PPEQ Profoundness (0-100)” value (Part A 6 mg (n = 6)) was 42. For the same molecule, the “PPEQ Total Score (0-100)” value (Part A 6 mg (n = 6)) was 43.8, the “PPE achieved (fraction of participants who achieved a PPEQ Total Score of at least 75)” value (Part A 12 mg (n = 4)) was 2/4 and the “PPEQ Intensity (0-100)” value (Part A 12 mg (n = 4)) was 78. The “PPEQ Loss of Control (0-100)” value (Part A 12 mg (n = 4)) was 69, the “PPEQ Profoundness (0-100)” value (Part A 12 mg (n = 4)) was 51 and the “PPEQ Total Score (0-100)” value (Part A 12 mg (n = 4)) was 65.5. The “PPE achieved (fraction of participants who achieved a PPEQ Total Score of at least 75)” value (Part A 18 mg (n = 4)) was 1/4, the “PPEQ Intensity (0-100)” value (Part A 18 mg (n = 4)) was 62 and the “PPEQ Loss of Control (0-100)” value (Part A 18 mg (n = 4)) was 80. For the same molecule, the “PPEQ Profoundness (0-100)” value (Part A 18 mg (n = 4)) was 36, the “PPEQ Total Score (0-100)” value (Part A 18 mg (n = 4)) was 59.2 and the “PPE achieved (fraction of participants who achieved a PPEQ Total Score of at least 75)” value [1] was 4/4. For the same molecule, the “PPEQ Intensity (0-100)” value [1] was 97, the “PPEQ Loss of Control (0-100)” value [1] was 94 and the “PPEQ Profoundness (0-100)” value [1] was 78. The “PPEQ Total Score (0-100)” value [1] was 89.3 and the “first psychedelic symptoms after the inhalation (onset)” value (all participants, 2 mg to 18 mg via inhalation) was “within a few seconds”.

From US20240307350A1, “5-METHOXY-N,N-DIMETHYLTRYPTAMINE (5-MEO-DMT) FOR TREATING DEPRESSION” (GH RESEARCH IRELAND LIMITED, priority 2019, published 2024)
